{
  "source": "patent US9730890B2",
  "about": "“Bronchodilating beta-agonist compositions and methods” (Mylan Specialty L.P., priority 2003, dated 2017)",
  "assay": "Decomposition rate constant (kobs) of formoterol in aqueous solution",
  "type": "physicochemical",
  "settings": "for rate constant (kobs) for decomposition: aqueous solution, 60° C., ionic strength 0.05",
  "from_the_text": "In the embodiments herein, the compositions have a pH of about 2.0 to about 8.0, or 2.0 to 8.0. In other embodiments, the compositions have a pH of about 4.0 to about 6.0, or 4.0 to 6.0. In other embodiments, the pH is about 4.5 to about 5.5, or 4.5 to 5.5. In certain of the above embodiments, the compositions are formulated at a pH of about 4, 4.4 or 4.6 up to about 5.5, 5.7 or 6; or 4, 4.4 or 4.6 up to 5.5, 5.7 or 6. In other embodiments, the pH is about 5.0, or 5.0. […] The rate constant (kobs) at 60° C. at a pH of 3, 4, 5 and 7 is approximately 0.62, 0.11, 0.044 and 0.55 day^-1, respectively.\nIn other of the above embodiments, the compositions further contain a buffer, including, but not limited to, citric acid/phosphate, acetate, barbital, borate, Britton-Robinson, cacodylate, citrate, collidine, formate, maleate, McIlvaine, phFosphate, Prideaux-Ward, succinate, citrate-phosphate-borate (Teorell-Stanhagen), veronal acetate, MES (2-(N-morpholino)ethanesulfonic acid), BIS-TRIS (bis(2-hydroxyethyl)imino-tris-(hydroxymethyl)methane), ADA (N-(2-acetamido)-2-iminodiacetic acid), ACES (N-(carbamoylmethyl)-2-aminoethanesulfonic acid), PIPES (piperazine-N,N′-bis(2-ethanesulfonic acid)), MOPSO (3-(N-morpholino)-2-hydroxypropanesulfonic acid), BISTRIS PROPANE (1,3-bis(tris(hydroxymethyl)methylamino)propane), BES (N,N-bis(2-hydroxyethyl)-2-aminoethanesulfonic acid), MOPS (3-(N-morpholino)propanesulfonic acid), TES (N-tris(hydroxymethyl)methyl-2-aminoethanesulfonic acid), HEPES (N-(2-hydroxyethyl)-piperazine-N′-(2-eth-anesulfonic acid), DIPSO (3-(N,N-bis(2-hydroxyethyl)amino)-2-hydroxypropan-esulfonic acid), MOBS (4-(N-morpholino)-butanesulfonic acid), TAPSO (3-(N-tris(hydroxymethyl)methylamino)-2-hydroxypropanesulfonic acid), TRIZMA® (tris(hydroxymethylaminomethane), HEPPSO(N-(2-hydroxyethyl)piperazine-N′-(2-hydroxypropanesulfonic acid), POPSO (piperazine-N,N′-bis(2-hydroxypropanesulfonic acid)), TEA (triethanolamine), EPPS (N-(2-hydroxyethyl)piperazine-N′-(3-propanesulfon-ic acid), TRICINE (N-tris(hydroxy-methyl)methylglycine), GLY-GLY (glycylglycine), BICINE (N,N-bis(2-hydroxyethyl)glycine), HEPBS (N-(2-hydroxyethyl)piperazine-N′-(4-butanesulfonic acid)), TAPS(N-tris(hydroxymethyl)methyl-3-aminopropanesulfonic acid), AMPD (2-amino-2-methyl-1,3-propanediol), and/or any other buffers known to those of skill in the art. In one embodiment, the buffer is citric acid/phosphate buffer, acetate buffer, citrate buffer or phosphate buffer. In another embodiment, the buffer is a citrate buffer (citric acid/sodium citrate). […] Buffer concentrations for use include from about 0 or 0.01 mM to about 150 mM, or 0 or 0.01 mM to 150 mM. In another embodiment, the buffer concentration is about 1 mM to about 20 mM, or 1 mM to 20 mM. In one embodiment, the buffer concentration is about 5 mM, or 5 mM. In other embodiments, the buffer concentration is about 1 mM to about 50 mM, or 1 mM to 50 mM. […] The particular buffer and buffer concentration of a given composition for long term storage provided herein may be determined empirically using standard stability assays well known to those of skill in the art (see, e.g., the Examples).\nIonic strengths of the compositions provided herein are from about 0 to about 0.4, or 0 to 0.4. […] The particular ionic strength of a given composition for long term storage provided herein may be determined empirically using standard stability assays well known to those of skill in the art (see, e.g., the Examples). […]",
  "data": [
    {"smiles": "COc1ccc(CC(C)NCC(O)c2ccc(O)c(NC=O)c2)cc1", "note": "(racemic) [formoterol, 2-hydroxy-5-((1RS)-1-hydroxy-2-(((1RS)-2-(p-methoxyphenyl)-1-methylethyl)amino)ethyl)formanilide]", "values": [
      {"measurement": "rate constant (kobs) for decomposition", "setting": "pH 3, buffer concentration 5 mM", "value": "approximately 0.62 day^-1"},
      {"measurement": "rate constant (kobs) for decomposition", "setting": "pH 4, buffer concentration 5 mM", "value": "~0.11", "unit": "day⁻¹"},
      {"measurement": "rate constant (kobs) for decomposition", "setting": "pH 5, buffer concentration 5 mM", "value": "~0.044", "unit": "day⁻¹"},
      {"measurement": "rate constant (kobs) for decomposition", "setting": "pH 7, buffer concentration 5 mM", "value": "~0.55", "unit": "day⁻¹"},
      {"measurement": "effect of buffer concentration on rate constant of decomposition", "setting": "pH region of about 4.5 to about 5.5, buffer concentration from 5 mM to 20 mM", "value": "no noticeable differences in rate constant"}
    ]}
  ]
}
